Source: paper PMC7250896, “Inhibition of mitochondrial complex I by the novel compound FSL0260 enhances high salinity-stress tolerance in Arabidopsis thaliana” (Scientific Reports, 2020)

Test system: T1, mitochondrial complex I
T1 construct: native multi-subunit complex in sonicated mitochondria isolated from potato tuber; with Gamma-CA (complex I subunit detected in the pull-down)
Assay: deamino-NADH oxidation ([…] nm) in sonicated mitochondria; OCR; pull-down with FSL0260-fixed agarose beads
Type: biochemical, Solanum tuberosum

Cc1ccc(S(=O)(=O)OCC2Oc3ccccc3C=C2C[n+]2ccccc2)cc1 (stereo not shown) [FSL0260]
IC50: 45.1 µM
